Test results as given in US20250134874A1, “PHARMACEUTICAL FORMULATIONS COMPRISING 3-({[(4R)-7-{METHYL[4-(PROPAN-2-YL)PHENYL]AMINO}-3,4-DIHYDRO-2H-1-BENZOPYRAN-4-YL]METHYL}AMINO)PYRIDINE-4-CARBOXYLIC ACID” (TACHYON THERAPEUTICS, INC., priority 2021, published 2025).

Test system: 301 cancer cell lines from different tumor types (OncoPanel; HD Biosciences)
Experiment: 2D cell viability inhibition assay (CellTiter-Glo) in cancer cell line panel
Format: cell-based
Parameters: key to AUC: AUC as fraction of the no-inhibition area (dose range × 0–100 % of control)
Settings: for Emax: in %
Procedure: In a larger screening study, compound 1 was evaluated across a broad cancer cell line panel (OncoPanel; HD Biosciences) composed of 301 cancer cell lines from different tumor types.
2D cell viability inhibition assays were performed in multiwell plates seeded with cells from the panel. After seeding, the plates were cultured overnight in a humidified incubator at 37° C. to promote adherence. Assays were initiated in individual wells by adding either DMSO as a vehicle control, growth media as a blank, or serially diluted compound 1 (10 μM to 0.0005 μM with 1:3 serial dilution). Cultures were incubated for 168 hours after which the number of viable cells in each test well was assessed using the CellTiter-Glo® Luminescent Cell Viability Assay. Luminescence readouts were performed using an EnVision® Multilabel Reader and the compound 1 readouts were normalized to the DMSO control readouts, expressed as a percent of the control. Outliers were flagged out by visual inspection. Percent of control was plotted against the corresponding compound 1 concentration and the absolute IC50 value was determined using four-parameter logistic non-linear regression as the concentration where inhibition was 50% of the control. For maximum inhibition <50%, the absolute IC50 was reported as >10. In addition to EC50 and IC50, AUC was determined and was normalized to the area corresponding to theoretical no-inhibition (the rectangular area defined by the compound dose range and 0 to 100 in y). Emax was recorded as the minimum in y with the compound dose range. For those cell lines where Emax>40, EC50 was manually set to 10 μM. A hierarchical clustering algorithm based on Euclidean distance between the standardized input values and “Ward.D” method as implemented in R hclust function was used to visualize the compound 1 cellular potency data. The sensitive/moderate/resistant calls for each cell line was determined by visually inspecting the resulting clustering dendrogram. All the analyses were done in R Core Team.

[1] = Homo sapiens, 143B, 143B cell line
[2] = Homo sapiens, 647-V, 647V cell line
[3] = Homo sapiens, 786-0, 7860 cell line
[4] = Homo sapiens, A101D, A101D cell line
[5] = Homo sapiens, A549, A549 cell line
[6] = Homo sapiens, A2058, A2058 cell line
[7] = Homo sapiens, A2780, A2780 cell line
[8] = Homo sapiens, A-375, A375 cell line
[9] = Homo sapiens, ACHN, ACHN cell line
[10] = Homo sapiens, AGS, AGS cell line
[11] = Homo sapiens, ASPC1, ASPC1 cell line
[12] = Homo sapiens, AZ-521, AZ521 cell line
[13] = Homo sapiens, BFTC-905, BFTC905 cell line
[14] = Homo sapiens, BT-549, BT549 cell line
[15] = Homo sapiens, BXPC-3, BXPC3 cell line
[16] = Homo sapiens, C32, C32 cell line
[17] = Homo sapiens, CAKI-1, CAKI1 cell line
[18] = Homo sapiens, CFPAC-1, CFPAC1 cell line
[19] = Homo sapiens, CHL-1, CHL1 cell line
[20] = Homo sapiens, COLO 205, COLO205 cell line
[21] = Homo sapiens, COLO-320-HSR, COLO320HSR cell line
[22] = Homo sapiens, COLO-679, COLO679 cell line
[23] = Homo sapiens, COLO-680N, COLO680N cell line
[24] = Homo sapiens, COLO-741, COLO741 cell line
[25] = Homo sapiens, COR-L279, CORL279 cell line

CC(C)c1ccc(N(C)c2ccc3c(c2)OCC[C@H]3CNc2cnccc2C(=O)O)cc1 [Compound 1, 3-({[(4R)-7-{methyl[4-(propan-2-yl)phenyl]amino}-3,4-dihydro-2H-1-benzopyran-4-yl]methyl}amino)pyridine-4-carboxylic acid]
AUC (HCC1599 cell line): 0.4639
Emax (HCC1599 cell line): 32.7
AUC (HCC1806 cell line): 0.5325
Emax (HCC1806 cell line): 36.87
AUC (HCC1937, breast, ductal carcinoma, 168 hours): 0.9094
AUC (HCC1954 cell line): 0.5912
AUC (HCC2935 cell line): 0.6922
AUC (HCT15 cell line): 0.1838
Emax (HCT15 cell line): 4.541
AUC (HCT116 cell line): 0.5356
AUC (HEL cell line): 0.5268
Emax (HEL cell line): 28.89
AUC (HEP3B217 cell line): 0.6448
IC50 (HEP3B217 cell line): 129 nM
AUC (HEPG2 cell line): 0.6086
AUC (HL60 cell line): 0.3703
Emax (HL60 cell line): 9.446
AUC (HLE cell line): 0.3839
Emax (HLE cell line): 7.876
AUC (HLF cell line): 0.4657
Emax (HLF cell line): 18.25
EC50 (HLF, HLF cell line): 11.5 nM
IC50 (HLF, HLF cell line): 18 nM
AUC (HMCB cell line): 0.5041
Emax (HMCB cell line): 32.25
AUC (HPAC cell line): 0.3965
AUC (HS294T cell line): 0.6005
AUC (HS578T cell line): 0.5373
Emax (HS578T cell line): 32.75
AUC (HS688AT, skin, NS, 168 hours): 1.105
AUC (HS695T, skin, NS, 168 hours): 0.9238
AUC (HS739T, breast, NS, 168 hours): 0.8686
AUC (HS839T, skin, NS, 168 hours): 1.097
AUC (HS852T, skin, NS, 168 hours): 0.883
AUC (HSC2 cell line): 0.4511
Emax (HSC2 cell line): 26.01
AUC (HSC3 cell line): 0.6313
AUC (HSC4 cell line): 0.4347
Emax (HSC4 cell line): 23.28
AUC (HT29 cell line): 0.5741
AUC (HT55 cell line): 0.4704
Emax (HT55 cell line): 22.172
AUC (HT144, skin, NS, 168 hours): 0.8912
AUC (HT1080 cell line): 0.5438
Emax (HT1080 cell line): 29.74
AUC (HT1376 cell line): 0.5519
AUC (HUH1 cell line): 0.4145
Emax (HUH1 cell line): 11.68
AUC (HUH7 cell line): 0.3926
Emax (HUH7 cell line): 7.054
AUC (HUH28, biliary tract, NS, 168 hours): 0.9862
AUC (HUTU80 cell line): 0.3016
EC50 [1]: 13.9 nM
IC50 [1]: 14.4 nM
EC50 [2]: 11.2 nM
IC50 [2]: 12.2 nM
EC50 [3]: 11.7 nM
IC50 [3]: 22.5 nM
EC50 [4]: 6.91 nM
IC50 [4]: 11 nM
IC50 (Homo sapiens, A204, 168 h, A204, soft tissue, NS, 168 hours): > 10000 nM
EC50 [5]: 18.5 nM
IC50 [5]: 32.4 nM
EC50 [6]: 28.1 nM
IC50 [6]: 46.8 nM
EC50 [7]: 2.1 nM
IC50 [7]: 2.14 nM
EC50 [8]: 7.62 nM
IC50 [8]: 10.6 nM
EC50 [9]: 30.3 nM
IC50 [9]: 34.7 nM
EC50 [10]: 5.18 nM
IC50 [10]: 6.19 nM
EC50 [11]: 18.9 nM
IC50 [11]: 66.8 nM
EC50 [12]: 3.84 nM
IC50 [12]: 4.19 nM
EC50 [13]: 8.93 nM
IC50 [13]: 9.91 nM
IC50 (Homo sapiens, BT-20, 168 h, BT20, breast, ductal carcinoma, 168 hours): > 10000 nM
IC50 (Homo sapiens, BT-474, 168 h, BT474, breast, ductal carcinoma, 168 hours): > 10000 nM
EC50 [14]: 5.84 nM
IC50 [14]: 9.98 nM
EC50 [15]: 8.45 nM
IC50 [15]: 19.4 nM
IC50 (Homo sapiens, C2BBe1, 168 h, C2BBE1, large intestine, adenocarcinoma, 168 hours): > 10000 nM
EC50 [16]: 5.18 nM
IC50 [16]: 5.36 nM
EC50 [17]: ≥ 10000 nM
IC50 [17]: 4.43 nM
IC50 (Homo sapiens, CAL-27, 168 h, CAL27, upper aerodigestive tract, squamous cell carcinoma, 168 hours): > 10000 nM
IC50 (Homo sapiens, CAPAN-1, CAPAN1 cell line): 116 nM
IC50 (Homo sapiens, CCF-STTG1, 168 h, CCFSTTG1, central nervous system, astrocytoma, 168 hours): > 10000 nM
EC50 [18]: 11.3 nM
IC50 [18]: 15.3 nM
EC50 [19]: 4.68 nM
IC50 [19]: 6.08 nM
EC50 [20]: 5.97 nM
IC50 [20]: 11.5 nM
EC50 [21]: 4.46 nM
IC50 [21]: 4.61 nM
EC50 [22]: 2340 nM
IC50 [22]: 2040 nM
EC50 [23]: 4.79 nM
IC50 [23]: 6.97 nM
EC50 [24]: 6.86 nM
IC50 [24]: 10.4 nM
IC50 (Homo sapiens, COLO-829, COLO829 cell line): > 10000 nM
EC50 [25]: 4.23 nM
IC50 [25]: 4.34 nM
IC50 (Homo sapiens, Calu-1, 168 h, CALU1, lung, squamous cell carcinoma, 168 hours): > 10000 nM
IC50 (Homo sapiens, Calu-3, 168 h, CALU3, lung, adenocarcinoma, 168 hours): > 10000 nM
EC50 (Homo sapiens, Calu-6, CALU6 cell line): 11.5 nM
